Experimental data as given in patent publication US6781015B2, “Aminobenzophenones and photopolymerizable compositions including the same” (Albemarle Corporation, priority 1997, dated 2004).
“And” between values parts separate entries of the source, which are not always exact repeats. Equal values may be shown once.

Tests used:
[1] = system: Salmonella typhimurium tester strain TA98; experiment: Salmonella/Mammalian-Microsome Reverse Mutation Screening Assay (Ames Test); assay type: cell-based; design: key to Background lawn: 1 = normal; 2 = slightly reduced; 3 = moderately reduced; 4 = extremely reduced; 5 = absent; 6 = obscured by precipitate; sp = slight precipitate; mp = moderate precipitate (requires hand count); hp = heavy precipitate (requires hand count); conditions: for Individual plate counts, revertants per plate: plates 1-3
Procedure: Mutagenicity can be measured by a variety of assays. The most commonly used method is the Salmonella/Mammalian-Microsome Reverse Mutation Screening Assay (Ames Test), which commonly uses four or five strains of Salmonella bacteria to detect different types of mutations.
TMMK, TEMK and MEAB were evaluated for the ability to induce reverse mutations at the histidine locus in the genome of a specific Salmonella typhimurium tester strain in the presence of an exogenous metabolic activation system of mammalian microsomal enzymes derived from Aroclor™-induced rat liver (S9). The tester strain used in the mutagenicity assay was Salmonella typhimurium tester strain TA98 with added activation. The assay was conducted using eight doses of the test article, along with the appropriate vehicle and positive controls in the presence of S9 mix (S9 homogenate was purchased from Molecular Toxicology, Inc., Annapolis, Md. 21401, Batch 0646, 43.4 mg of protein per ml). Positive controls were also plated in the absence of S9 mix. All doses of test article, vehicle, and positive controls were plated in triplicate.
(§1) The test article TMMK was stored at room temperature. Acetone (CAS# 67-64-1, Fisher Scientific Co., Lot 961140) was used as the vehicle. At 20 mg per ml, which was the most concentrated stock solution which could be prepared, the test article formed a clear, light yellow solution. The test article remained a solution in all succeeding dilutions prepared for the mutagenicity assay. The maximum aliquot of acetone which can be used in the test system is 200 μl. Thus, the maximum concentration which could be tested was 4,000 μg per plate. The test article and vehicle controls were plated using a 200 μl plating aliquot. Positive control articles were plated using 50 μl plating aliquot.
(§2) The test article TEMK was stored at room temperature. Acetone (CAS# 67-64-1, Fisher Scientific Co., Lot 961140) was used as the vehicle. At 100 mg per ml, which was the most concentrated stock solution prepared, the test article formed a clear, yellow solution. The test article remained a solution in all succeeding dilutions prepared for the mutagenicity assay. The test article, vehicle controls and positive control articles were plated using a 50 μl plating aliquot.
as §2, with “MEAB” for “TEMK”, “(CAS#67-64-1,” for “(CAS# 67-64-1,”, “25” for “100”, “clear, light” for “clear,”, “article and” for “article,”, “were plated using a 200 μl plating aliquot. Positive” for “and positive”
The data are presented as individual plate counts along with a mean and standard deviation.

[2] = Most concentrated stock solution in acetone; assay type: physicochemical; conditions: clear, light yellow solution
Procedure: as §1

[3] = system: Salmonella typhimurium tester strain TA98; conditions: strain TA98 with added mammalian metabolic activation, adequate concentrations of test material; cited from earlier work
[4] = based on cancer studies in rats and mice; cited from earlier work
[5] = TA98, rat liver S9, 3.33 μg/plate
[6] = TA98, rat liver S9, 10.0 μg/plate
[7] = TA98, rat liver S9, 33.3 μg/plate
[8] = TA98, rat liver S9, 100 μg/plate
[9] = TA98, rat liver S9, 333 μg/plate
[10] = TA98, rat liver S9, 1000 μg/plate
[11] = TA98, rat liver S9, 3330 μg/plate
[12] = TA98, rat liver S9, 4000 μg/plate
[13] = tester strain TA98 in the presence of S9 mix

CN(C)c1ccc(C(=O)c2ccc(N(C)C)cc2)cc1 [TMMK, 4,4′-bis(dimethylamino)benzophenone]
Mean revertants per plate [1, 5]: 22 revertants per plate | Individual plate counts, revertants per plate [1, 5]: 14 revertants per plate and 29 revertants per plate and 24 revertants per plate | Mean revertants per plate [1, 6]: 16 revertants per plate | Individual plate counts, revertants per plate [1, 6]: 9 revertants per plate and 19 revertants per plate (2×) | Mean revertants per plate [1, 7]: 31 revertants per plate | Individual plate counts, revertants per plate [1, 7]: 21 revertants per plate and 35 revertants per plate and 37 revertants per plate | Mean revertants per plate [1, 8]: 17 revertants per plate | Individual plate counts, revertants per plate [1, 8]: 16 revertants per plate and 12 revertants per plate and 22 revertants per plate | Mean revertants per plate [1, 9]: 18 revertants per plate | Individual plate counts, revertants per plate [1, 9]: 18 revertants per plate and 23 revertants per plate and 12 revertants per plate | Mean revertants per plate [1, 10]: 31 revertants per plate | Individual plate counts, revertants per plate [1, 10]: 35 revertants per plate and 26 revertants per plate and 33 revertants per plate | Mean revertants per plate [1, 11]: 79 revertants per plate | Individual plate counts, revertants per plate [1, 11]: 78 revertants per plate (2×) and 82 revertants per plate | Mean revertants per plate [1, 12]: 81 revertants per plate | Individual plate counts, revertants per plate [1, 12]: 80 revertants per plate and 70 revertants per plate and 93 revertants per plate | Background lawn ([1]; Table 1, TA98, rat liver S9, 3.33 μg/plate): 1 | Background lawn ([1]; Table 1, TA98, rat liver S9, 10.0 μg/plate): 1 | Background lawn ([1]; Table 1, TA98, rat liver S9, 33.3 μg/plate): 1 | Background lawn ([1]; Table 1, TA98, rat liver S9, 100 μg/plate): 1 sp | Background lawn ([1]; Table 1, TA98, rat liver S9, 333 μg/plate): 1 mp | Background lawn ([1]; Table 1, TA98, rat liver S9, 1000 μg/plate): 1 mp | Background lawn ([1]; Table 1, TA98, rat liver S9, 3330 μg/plate): 6 mp | Background lawn ([1]; Table 1, TA98, rat liver S9, 4000 μg/plate): 6 mp | Background lawn ([1]; Table 2 summary, TA98, rat liver S9, 3.33 μg/plate): 1 | Background lawn ([1]; Table 2 summary, TA98, rat liver S9, 10.0 μg/plate): 1 | Background lawn ([1]; Table 2 summary, TA98, rat liver S9, 33.3 μg/plate): 1 | Background lawn ([1]; Table 2 summary, TA98, rat liver S9, 100 μg/plate): 1 sp | Background lawn ([1]; Table 2 summary, TA98, rat liver S9, 333 μg/plate): 1 mp | Background lawn ([1]; Table 2 summary, TA98, rat liver S9, 1000 μg/plate): 1 mp | Background lawn ([1]; Table 2 summary, TA98, rat liver S9, 3330 μg/plate): 6 mp | Background lawn ([1]; Table 2 summary, TA98, rat liver S9, 4000 μg/plate): 6 mp | Ames Test outcome (mutagenicity) [1, 13]: mutagenic | Increase in the number of revertants per plate [1, 13]: 3.9 fold | Most concentrated stock solution which could be prepared [2]: 20 mg per ml | Ames Test outcome in the literature [3]: consistently found to have mutations | National Toxicology Program carcinogen listing [4]: reasonably anticipated to be a carcinogen
